From patent publication US20250339402A1, “EFFECTIVE MEANS TO MODULATE NMDA RECEPTOR-MEDIATED TOXICITY” (FUNDAMENTAL PHARMA GMBH, priority 2022, published 2025)
“Also recorded” adds a separate entry of the source. Where a name gives a salt, the structure may show the parent alone.

How the values were obtained:
Assay type in all cases: cell-based
[1] = system: Primary mouse hippocampal neurons; assay: Excitotoxic (glutamate/NMDA-induced) cell death in primary neuronal cultures, protection index; settings: first subset; protection index from area above curve over 24 h glutamate/NMDA insult; compounds added 30 min before; 10 μM, Group A also at lower concentrations
Experimental: Primary mouse hippocampal neurons were prepared as previously described (Bading & Greenberg, Science, 1991; 253: 912-914; Zhang et al, Neuron, 2007, 53: 549-562) and maintained in Neurobasal-A medium supplemented with 2% B27, 5 mM L-Glutamax, and 0.5% Penicillin/Streptomycin until challenged with NMDA on days in vitro (DIV) 10. Glutamate-induced cell death was analyzed in a real-time manner by monitoring nuclear localized mCherry with IncuCyte® S3 Live-Cell Analysis System (Sartorius AG, Germany). Primary neurons plated in 24 well plates were infected with rAAV-hSyn-mCherry on DIV3 and challenged with 1 μM or 20 μM glutamate on DIV10. All compounds were added to the culture 30 min prior to glutamate/NMDA insult. Images were acquired following the glutamate application for 24 h with a 2 h interval, where 9-16 images were obtained via a 20×objective for each condition at each time point. Cell deaths were quantified by analyzing the existence of nuclear localized mCheery via the Basic Analyzer with Incucyte® 2021 software, size and average intensity were used as exclusion criteria.
In order to evaluate the protective effects of various compounds, a quantification method was developed to determine each compound's protection index. The protection index (from 0.0 to 10.0) was calculated by the area above the curve (AAC) during a 24 h excitotoxic stimuli, where the cell survival was normalized to the 0 h (FIG. 2), following the equation: […]
Where AAC represents for each compound, AACbasal represents for the basal condition without excitotoxic insult, AACVeh represents for the vehicle control with excitotoxic insult. Based on the equation, vehicle (DMSO) has a protection index at 0.0 and compound P401 of WO 2020/079244 has a protection index at 6.0 (at 10 μM).
The inventors also performed experiments with Group A compounds at lower concentration in a 3-fold dilution matter ([…]: 3.0, 1.0, 0.3, 0.1, 0.03) and were able to achieve a similar protection effect as 10 μM compound P401, but at a lower concentration.

[2] = system: human iPSC-derived prefrontal cortex organoids; assay: Cell survival after glutamate/NMDA treatment in prefrontal cortex organoids (RealTime-Glo MT Cell Viability Assay); settings: pre-incubation 30 min, 200 μM NMDA for 24 h; compared with P401; FIG. 4; hydrochloride
Experimental: Prefrontal cortex organoids were generated based on published literature (Bauersachs H G et al, Neuroscience, 2022; 484:83-97). Around week 20, organoids were pre-incubated with compound 120 for 30 min before challenged with 200 μM NMDA for 24 h, where 80% of neuron will undergo necrosis. The cell death was monitored and analyzed with a RealTime-Glo™ MT Cell Viability Assay (Promega, G9711) following the manufacture's instruction using a plate reader (luciferase). The cell survival (%) can be calculated by the following equation: […]
Where Ft is the luciferase intensity at each time point and Fbasal is the basal luciferase intensity before glutamate/NMDA insult to diminish the difference between different organoids. The Control and FControlBasal stands for the same in untreated organoids, therefore the cell death can be calculated by normalization to the healthy organoids.

NMDAR/TRPM4 complex = target: T1, NMDAR/TRPM4 complex (Homo sapiens, UniProt Q8TD43); assay: Co-immunoprecipitation of TRPM4 and NMDA receptor subunits, Western blot; settings: 10 μM for 30 min; lysates of human iPSC-derived brain organoids precipitated with anti-TRPM4; FIG. 5; hydrochloride
T1 construct: endogenous in cells; host or cells: human iPSC-derived brain organoids, week 25
Experimental: All procedures for co-immunoprecipitation were carried out at 4° C. Human iPSC derived brain organoids were cultured in Falcon@6 well TC-treated cell culture plate to week 25 as described (Bauersachs H G et al, Neuroscience, 2022; 484:83-97), which allows an abundant expression of both GluN2A/GluN2B/TRPM4 expression. 6 brain organoids were incubated with 10 μM compound 120 for 30 min, washed twice with ice-cold PBS and then lysed in 500 μL immunoprecipitation buffer (10 mM Tris, pH 8.0, 150 mM NaCl, 1 mM EDTA, 1% NP-40, 10% glycerol with EDTA-free Protease Inhibitor Cocktail (Roche). The lysate was incubated while rotating for 60 min, centrifuged for 12 min at 1,200×g to remove cell debris and nuclei. 10% of the supernatant was boiled with Laemmli buffer for input samples analysis. The rest of the supernatant was mixed with anti-TRPM4 antibody (1:200) overnight. The mixture was then incubated with Pierce™ Protein A Magnetic Beads for another 12 h to pull down antibody complex, and washed with immunoprecipitation buffer to remove any unspecific bindings. After the last washing, the supernatant was carefully removed, and the precipitate pellets were boiled in Laemmli buffer. Both input and precipitate samples were stored at −20° C. until analysed with western blots. […]

T1 sequence (Q8TD43 whole entry, one chain of several): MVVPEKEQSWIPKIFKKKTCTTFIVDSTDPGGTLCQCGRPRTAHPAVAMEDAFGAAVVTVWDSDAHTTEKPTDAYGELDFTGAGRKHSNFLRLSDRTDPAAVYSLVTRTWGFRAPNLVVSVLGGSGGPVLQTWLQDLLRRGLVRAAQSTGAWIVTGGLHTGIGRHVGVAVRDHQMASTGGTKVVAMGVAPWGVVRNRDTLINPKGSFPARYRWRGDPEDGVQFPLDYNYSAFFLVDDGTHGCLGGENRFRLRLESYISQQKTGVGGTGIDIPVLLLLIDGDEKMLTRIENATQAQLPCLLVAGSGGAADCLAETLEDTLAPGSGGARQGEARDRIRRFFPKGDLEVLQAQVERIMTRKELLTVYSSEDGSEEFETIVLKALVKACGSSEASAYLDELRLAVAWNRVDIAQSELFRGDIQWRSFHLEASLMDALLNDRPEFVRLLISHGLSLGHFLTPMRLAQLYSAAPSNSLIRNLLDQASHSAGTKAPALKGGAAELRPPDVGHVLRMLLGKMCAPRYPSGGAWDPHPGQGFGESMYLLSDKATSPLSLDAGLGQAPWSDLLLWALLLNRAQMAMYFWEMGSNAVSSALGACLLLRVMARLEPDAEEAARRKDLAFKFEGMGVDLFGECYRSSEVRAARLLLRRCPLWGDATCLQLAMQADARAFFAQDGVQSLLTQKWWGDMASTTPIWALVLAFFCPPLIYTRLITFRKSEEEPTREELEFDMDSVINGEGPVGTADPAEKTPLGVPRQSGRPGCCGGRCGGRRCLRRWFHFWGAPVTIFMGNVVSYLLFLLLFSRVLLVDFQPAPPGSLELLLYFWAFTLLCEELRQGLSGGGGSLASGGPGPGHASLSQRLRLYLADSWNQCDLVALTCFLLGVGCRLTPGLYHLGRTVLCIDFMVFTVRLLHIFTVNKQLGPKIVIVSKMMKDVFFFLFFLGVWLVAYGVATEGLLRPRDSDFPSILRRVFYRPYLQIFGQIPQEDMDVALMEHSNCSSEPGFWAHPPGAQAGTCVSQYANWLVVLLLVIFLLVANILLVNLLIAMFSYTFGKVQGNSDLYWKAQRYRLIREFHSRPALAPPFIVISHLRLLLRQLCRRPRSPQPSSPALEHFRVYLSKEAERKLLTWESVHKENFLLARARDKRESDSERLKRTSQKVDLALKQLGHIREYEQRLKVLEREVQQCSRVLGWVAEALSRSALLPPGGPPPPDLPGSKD

NCCN(Cc1cccc(Cl)c1F)C1CC1 [Compound 120, N1-(3-chloro-2-fluorobenzyl)-N1-cyclopropylethane-1,2-diamine hydrochloride]
Biological Activity Rating [1]: A+++ (With a protection index between 5.0 to 7.0, provides a comparable protection to compound P401 (10 μM) at 0.3 μM.) | cell survival (%) after glutamate/NMDA treatment [2]: superior protection over compound P401; also recorded: improves cell survival after glutamate/NMDA treatment | disruption of NMDAR/TRPM4 complex (NMDAR/TRPM4 complex): the NMDAR/TRPM4 complex was disrupted; also recorded: disrupts the NMDAR/TRPM4 complex
